# Laboratory results published in PubChem BioAssay AID1918947 (Molecular Pharmacology Branch, DTP, NCI, 2023).
# pIC50: −log10 of the molar value. Where “and” joins values, the source holds several entries; their conditions need not be identical. Identical values can stand only once.
# Test system: A498 complex spheroid viability
# Assay: Anticancer human tumor A498 cell line growth inhibition;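 further: spheroids exposed to agents for seven days before readout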;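 on viability, T/C: 100% = DMSO vehicle-treated spheroids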
# Conditions: for viability, T/C: stronger effect = lower value
# Outline: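 Multicellular complex spheroids of tumor cells with human endothelial cells (HUVEC) and mesenchymal stem cells; the LSD1 inhibitor iadademstat was combined with standard-of-care or investigational agents. Top concentration at or near clinical Cmax, half-log dilutions; final DMSO ≤0.25%.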
# [1] = curve of first compound, second compound 0.1 µM
# [2] = curve of first compound, second compound 0.316 µM
# [3] = curve of first compound, second compound 1 µM
# [4] = curve of first compound, second compound 3.16 µM
# [5] = curve of first compound, second compound 10 µM
# [6] = second compound 0.1 µM, first compound 0.000316 µM
# [7] = second compound 0.1 µM, first compound 0.001 µM
# [8] = second compound 0.1 µM, first compound 0.00316 µM
# [9] = second compound 0.1 µM, first compound 0.01 µM
# [10] = second compound 0.1 µM, first compound 0.0316 µM
# [11] = second compound 0.1 µM, first compound 0.1 µM
# [12] = second compound 0.316 µM, first compound 0.000316 µM
# [13] = second compound 0.316 µM, first compound 0.001 µM
# [14] = second compound 0.316 µM, first compound 0.00316 µM
# [15] = second compound 0.316 µM, first compound 0.01 µM
# [16] = second compound 0.316 µM, first compound 0.0316 µM
# [17] = second compound 0.316 µM, first compound 0.1 µM
# [18] = second compound 1 µM, first compound 0.000316 µM
# [19] = second compound 1 µM, first compound 0.001 µM
# [20] = second compound 1 µM, first compound 0.00316 µM
# [21] = second compound 1 µM, first compound 0.01 µM
# [22] = second compound 1 µM, first compound 0.0316 µM
# [23] = second compound 1 µM, first compound 0.1 µM
# [24] = second compound 3.16 µM, first compound 0.000316 µM
# [25] = second compound 3.16 µM, first compound 0.001 µM
# [26] = second compound 3.16 µM, first compound 0.00316 µM
# [27] = second compound 3.16 µM, first compound 0.01 µM
# [28] = second compound 3.16 µM, first compound 0.0316 µM
# [29] = second compound 3.16 µM, first compound 0.1 µM
# [30] = second compound 10 µM, first compound 0.000316 µM
# [31] = second compound 10 µM, first compound 0.001 µM
# [32] = second compound 10 µM, first compound 0.00316 µM
# [33] = second compound 10 µM, first compound 0.01 µM
# [34] = second compound 10 µM, first compound 0.0316 µM
# [35] = second compound 10 µM, first compound 0.1 µM
# [36] = second compound 0.1 µM, first compound 0.316 µM
# [37] = second compound 0.1 µM, first compound 1 µM
# [38] = second compound 0.316 µM, first compound 0.316 µM
# [39] = second compound 0.316 µM, first compound 1 µM
# [40] = second compound 1 µM, first compound 0.316 µM
# [41] = second compound 1 µM, first compound 1 µM
# [42] = second compound 3.16 µM, first compound 0.316 µM
# [43] = second compound 3.16 µM, first compound 1 µM
# [44] = second compound 10 µM, first compound 0.316 µM
# [45] = second compound 10 µM, first compound 1 µM
smiles,measurement,setting,value
Cn1ncnc1C1c2n[nH]c(=O)c3cc(F)cc(c23)NC1c1ccc(F)cc1 (configuration not stated) + NC1CCC(NC2CC2c2ccccc2)CC1,pIC50,[1],< 7.00
same,pIC50,[2],< 7.00
same,pIC50,[3],< 7.00
same,pIC50,[4],< 7.00
same,pIC50,[5],< 7.00
same,"viability, T/C",[6],84%
same,"viability, T/C",[7],88.1%
same,"viability, T/C",[8],82.7%
same,"viability, T/C",[9],87.4%
same,"viability, T/C",[10],85.1%
same,"viability, T/C",[11],85.3%
same,"viability, T/C",[12],95.5%
same,"viability, T/C",[13],95.5%
same,"viability, T/C",[14],95%
same,"viability, T/C",[15],89%
same,"viability, T/C",[16],85.7%
same,"viability, T/C",[17],90.9%
same,"viability, T/C",[18],84.2%
same,"viability, T/C",[19],94.5%
same,"viability, T/C",[20],87%
same,"viability, T/C",[21],84.2%
same,"viability, T/C",[22],78.5%
same,"viability, T/C",[23],81.3%
same,"viability, T/C",[24],83.8%
same,"viability, T/C",[25],85.3%
same,"viability, T/C",[26],85.3%
same,"viability, T/C",[27],78.5%
same,"viability, T/C",[28],79.6%
same,"viability, T/C",[29],74.9%
same,"viability, T/C",[30],77.2%
same,"viability, T/C",[31],76.8%
same,"viability, T/C",[32],78.2%
same,"viability, T/C",[33],74.9%
same,"viability, T/C",[34],75.8%
same,"viability, T/C",[35],65.3%
O=C(C=Cn1cnc(-c2cc(C(F)(F)F)cc(C(F)(F)F)c2)n1)NNc1cnccn1 + NC1CCC(NC2CC2c2ccccc2)CC1,pIC50,[1],8.28
same,pIC50,[2],8.11
same,pIC50,[3],8.20
same,pIC50,[4],8.17
same,pIC50,[5],8.39
same,"viability, T/C",[8],56.5%
same,"viability, T/C",[9],40.9%
same,"viability, T/C",[10],33.6%
same,"viability, T/C",[11],26.6%
same,"viability, T/C",[36],24.9%
same,"viability, T/C",[37],20.9%
same,"viability, T/C",[14],66.7%
same,"viability, T/C",[15],44.4%
same,"viability, T/C",[16],33.5%
same,"viability, T/C",[17],31.2%
same,"viability, T/C",[38],24.1%
same,"viability, T/C",[39],23.4%
same,"viability, T/C",[20],62.4%
same,"viability, T/C",[21],39.2%
same,"viability, T/C",[22],34.1%
same,"viability, T/C",[23],27.1%
same,"viability, T/C",[40],21.9%
same,"viability, T/C",[41],21.2%
same,"viability, T/C",[26],61.5%
same,"viability, T/C",[27],42.6%
same,"viability, T/C",[28],34.1%
same,"viability, T/C",[29],26.9%
same,"viability, T/C",[42],21.5%
same,"viability, T/C",[43],20.5%
same,"viability, T/C",[32],53.4%
same,"viability, T/C",[33],39.2%
same,"viability, T/C",[34],31.1%
same,"viability, T/C",[35],26.4%
same,"viability, T/C",[44],22.9%
same,"viability, T/C",[45],16.4%
Nc1ncn(C2CC(O)C(CO)O2)c(=O)n1 (configuration not stated) + NC1CC1c1ccc(-c2cccc(O)c2)cc1,pIC50,[1],< 6.00
same,pIC50,[2],< 6.00
same,pIC50,[3],< 6.00
same,pIC50,[4],< 6.00
same,pIC50,[5],< 6.00
same,"viability, T/C",[8],110%
same,"viability, T/C",[9],113%
same,"viability, T/C",[10],104%
same,"viability, T/C",[11],94.5%
same,"viability, T/C",[36],92.3%
same,"viability, T/C",[37],78.6%
same,"viability, T/C",[14],118%
same,"viability, T/C",[15],120%
same,"viability, T/C",[16],107%
same,"viability, T/C",[17],97.1%
same,"viability, T/C",[38],93.1%
same,"viability, T/C",[39],68.5%
same,"viability, T/C",[20],113%
same,"viability, T/C",[21],114%
same,"viability, T/C",[22],110%
same,"viability, T/C",[23],95.7%
same,"viability, T/C",[40],86.1%
same,"viability, T/C",[41],67.3%
same,"viability, T/C",[26],112%
same,"viability, T/C",[27],114%
same,"viability, T/C",[28],110%
same,"viability, T/C",[29],95.4%
same,"viability, T/C",[42],75.6%
same,"viability, T/C",[43],63.2%
same,"viability, T/C",[32],107%
same,"viability, T/C",[33],100%
same,"viability, T/C",[34],105%
same,"viability, T/C",[35],101%
same,"viability, T/C",[44],80.2%
same,"viability, T/C",[45],60.4%
COc1cc(Nc2ncc3c(n2)-c2ccc(Cl)cc2C(c2c(F)cccc2OC)=NC3)ccc1C(=O)O + NC1CCC(NC2CC2c2ccccc2)CC1,pIC50,[1],6.59
same,pIC50,[2],6.34
same,pIC50,[3],6.38
same,pIC50,[4],6.54
same,pIC50,[5],6.28
same,"viability, T/C",[8],86.1%
same,"viability, T/C",[9],72.4%
same,"viability, T/C",[10],66.2%
same,"viability, T/C",[11],56%
same,"viability, T/C",[36],47.7%
same,"viability, T/C",[37],43.2%
same,"viability, T/C",[14],89.6%
same,"viability, T/C",[15],80.1%
same,"viability, T/C",[16],74.5%
same,"viability, T/C",[17],63%
same,"viability, T/C",[38],50.5%
same,"viability, T/C",[39],45.9%
same,"viability, T/C",[20],80.2%
same,"viability, T/C",[21],78.3%
same,"viability, T/C",[22],73.4%
same,"viability, T/C",[23],55.5%
same,"viability, T/C",[40],57.1%
same,"viability, T/C",[41],40.9%
same,"viability, T/C",[26],83.1%
same,"viability, T/C",[27],70%
same,"viability, T/C",[28],73.1%
same,"viability, T/C",[29],55.1%
same,"viability, T/C",[42],51%
same,"viability, T/C",[43],39.1%
same,"viability, T/C",[32],73%
same,"viability, T/C",[33],64.3%
same,"viability, T/C",[34],72.3%
same,"viability, T/C",[35],61.5%
same,"viability, T/C",[44],56.8%
same,"viability, T/C",[45],42.1%
NC1CCC(NC2CC2c2ccccc2)CC1 (configuration not stated),"viability, T/C",compound 0.1 µM,86.8% [middle of 25 runs]
same,"viability, T/C",compound 0.316 µM,85.2% and 90.6%
same,"viability, T/C",compound 1 µM,86% [middle of 25 runs]
same,"viability, T/C",compound 3.16 µM,84.7% [middle of 25 runs]
same,"viability, T/C",compound 10 µM,75.1% [middle of 23 runs]
same,pIC50,"compound alone, run of 11/29/2021",< 5.00
Cn1ncnc1C1c2n[nH]c(=O)c3cc(F)cc(c23)NC1c1ccc(F)cc1 (configuration not stated) + NC1CC1c1ccc(-c2cccc(O)c2)cc1,pIC50,[1],< 7.00
same,pIC50,[2],< 7.00
same,pIC50,[3],< 7.00
same,pIC50,[4],< 7.00
same,pIC50,[5],< 7.00
same,"viability, T/C",[6],94.6%
same,"viability, T/C",[7],97.7%
same,"viability, T/C",[8],104%
same,"viability, T/C",[9],94.9%
same,"viability, T/C",[10],96.2%
same,"viability, T/C",[11],94.2%
same,"viability, T/C",[12],103%
same,"viability, T/C",[13],111%
same,"viability, T/C",[14],104%
same,"viability, T/C",[15],92.1%
same,"viability, T/C",[16],100%
same,"viability, T/C",[17],93.3%
same,"viability, T/C",[18],89.3%
same,"viability, T/C",[19],93.3%
same,"viability, T/C",[20],96.4%
same,"viability, T/C",[21],84.6%
same,"viability, T/C",[22],89.1%
same,"viability, T/C",[23],87.8%
same,"viability, T/C",[24],87%
same,"viability, T/C",[25],89.8%
same,"viability, T/C",[26],90.2%
same,"viability, T/C",[27],89%
same,"viability, T/C",[28],91.9%
same,"viability, T/C",[29],77.8%
same,"viability, T/C",[30],80.8%
same,"viability, T/C",[31],86.6%
same,"viability, T/C",[32],91.3%
same,"viability, T/C",[33],87.3%
same,"viability, T/C",[34],78.6%
same,"viability, T/C",[35],78.4%
Nc1ccn(C2OC(CO)C(O)C2(F)F)c(=O)n1 (configuration not stated),"viability, T/C",compound 0.000949 µM,22.8% and 20%
same,"viability, T/C",compound 0.003 µM,29.2% and 27.8%
same,"viability, T/C",compound 0.00949 µM,43.3% and 107%
same,"viability, T/C",compound 0.03 µM,36.6% and 35.1%
same,"viability, T/C",compound 0.0949 µM,37% and 34%
same,"viability, T/C",compound 0.3 µM,27.9% and 29.2%
same,pIC50,curve of compound,> 9.02
CCN(c1cc(-c2ccc(CN3CCOCC3)cc2)cc(C(=O)NCc2c(C)cc(C)[nH]c2=O)c1C)C1CCOCC1,"viability, T/C",compound 0.00949 µM,98.7% and 101%
same,"viability, T/C",compound 0.03 µM,108% and 107%
same,"viability, T/C",compound 0.0949 µM,98.7% and 102%
same,"viability, T/C",compound 0.3 µM,103%
same,"viability, T/C",compound 0.949 µM,107% and 105%
same,"viability, T/C",compound 3 µM,112% and 113%
same,pIC50,curve of compound,< 5.52
CC(C)CC(NC(=O)CNC(=O)c1cc(Cl)ccc1Cl)B1OC(=O)CC(CC(=O)O)(C(=O)O)O1 (configuration not stated),"viability, T/C",compound 0.000316 µM,102% and 107%
same,"viability, T/C",compound 0.001 µM,106% and 107%
same,"viability, T/C",compound 0.00316 µM,69.4% and 75.4%
same,"viability, T/C",compound 0.01 µM,24.7% and 21.5%
same,"viability, T/C",compound 0.0316 µM,5.96% and 6.51%
same,"viability, T/C",compound 0.1 µM,2.46% and 1.92%
same,pIC50,curve of compound,8.28 and 8.26
